Data on two compounds can be found in publication PMC10518255, “A first-in-class pan-lysyl oxidase inhibitor impairs stromal remodeling and enhances gemcitabine response and survival in pancreatic cancer” (Nature Cancer, 2023).

Assay [1] relates to α-SMA. Description: Immunohistochemistry of end-point KPC tumors: myCAF marker. Type of assay: in vivo, mouse. The following applies: for Percent coverage of aSMA positive staining: Extended Data 6B, KPC tumours at endpoint, individual FOV. The protocol: (§1) All tissues or matrices, including patient TMAs, were fixed in 10% buffered formalin and embedded in paraffin. The 4-μm sections of samples were deparaffinized with xylene and rehydrated in graded ethanol washes. For immunohistochemistry, Bond Dewax Solution (AR9222) was used. Antigen retrieval was performed using Bond RX H2(30) protocol: HIER 30 min ER1 (citrate pH 6) OR ER2 (EDTA pH 9) at 100 °C. Slides were quenched in BOND Polymer Refine Detection (Leica Biosystems DS9800). […] Slides were digitized on an Aperio slide scanner and representative areas per tumor acquired and analyzed by researchers blinded to the conditions of the experiment.
(§2) Extended Data Fig. 6 PXS-5505 in combination with gemcitabine in a KPC model. a. Quantification of proliferating cells (Ki67 positive nuclear staining) in KPC tumors at end point, treated as indicated. 5 fields of view (500 μm × 500 μm) per mouse and 10 mice per cohort were scored. […] Quantification of percent coverage of αSMA positive staining in KPC tumors at end point, treated as indicated. 3 fields of view (1000 μm × 1000 μm) per mouse and 10 mice per cohort were scored. […] Quantification of percent coverage of PDGFR-ß positive staining in KPC tumors at end point, treated as indicated. 3 fields of view (1000 μm × 1000 μm) per mouse and 10 mice per cohort were scored. […] Quantification of pMLC2 positive staining in stromal regions of KPC tumors at end point, treated as indicated. 3 fields of view (500 μm × 500 μm) per mouse and 10 mice per cohort were scored. […] Quantification of tumor vasculature (CD31 positive staining) in KPC tumors at end point, treated as indicated. 3 fields of view (1000 μm × 1000 μm) per mouse and 10 mice per cohort were scored. […] Quantification of STAT3 activation (pSTAT3 positive nuclear staining) in KPC tumors at end point, treated as indicated. 3 fields of view (1000 μm × 1000 μm) per mouse and 5 mice per cohort were scored. […] Scale bars = 100 μm. g Quantification of macrophage infiltration (F4/80 positive staining) in KPC tumors at end point, treated as indicated. […]

For assay [2], the system named is pSTAT3. Description: Immunohistochemistry of end-point KPC tumors: STAT3 activation. Type of assay: in vivo, mouse. To be noted: for Quantification of STAT3 activation (pSTAT3 positive nuclear staining): Extended Data 6F, KPC tumours at endpoint, individual FOV. The protocol:
as §1, §2

Where “and” joins values, the source holds several entries; their conditions need not be identical. Equal entries are not always repeated.

As for `Nc1ccn([C@@H]2O[C@H](CO)[C@@H](O)C2(F)F)c(=O)n1` [Gem, gemcitabine], the “Percent coverage of aSMA positive staining” value in assay [1] is 4.1422% and 8.8428% and 3.9128% and 4.9851% and 3.7908% and 3.4102% and 13.5235% and 10.8353% and 9.6686% and 1.9907% and 2.1823% and 5.2926% and 3.0437% and 5.4036% and 4.2058% and 8.1217% and 4.3012% and 3.1567% and 3.0046% and 1.1246% and 5.0654% and 7.8034% and 8.097% and 1.0094% and 7.1387% and 7.3633% and 7.7939% and 1.1199% and 2.3003% and 3.6904%. The α-SMA positivity result in assay [1] (KPC tumors at end point) is “small decreases in positivity”. The “Quantification of STAT3 activation (pSTAT3 positive nuclear staining)” value in assay [2] was 1.773 and 0.7075 and 2.095 and 2.515 and 2.91 and 1.454 and 7.421 and 2.089 and 1.705 and 5.289 and 6.71 and 3.256 and 6.948 and 7.388 and 6.1144. Moreover, the pSTAT3-positive nuclear staining result in assay [2] (KPC tumors at end point) was “significantly increased levels of pSTAT3-positive staining”.
As to `Cl.Cl.NC/C=C(\F)CS(=O)(=O)c1cccc2cccnc12.O` [PXS-5505, (Z)-3-fluoro-4-(quinolin-8-ylsulfonyl)but-2-en-1-amine dihydrochloride monohydrate], the “Percent coverage of aSMA positive staining” value in assay [1] was 3.0735% and 6.2874% and 6.4326% and 3.0495% and 2.5796% and 2.9175% and 6.2269% and 8.7759% and 5.9209% and 8.6578% and 7.7662% and 8.3469% and 5.6452% and 6.7775% and 4.6186% and 7.36% and 5.232% and 2.4577% and 4.7266% and 9.579% and 5.032% and 5.1635% and 4.6717% and 8.3034% and 3.41% and 6.5089% and 4.6457% and 1.885% and 5.2516% and 5.0893%. In assay [2], the “Quantification of STAT3 activation (pSTAT3 positive nuclear staining)” value is 2.225 and 1.368 and 3.504 and 0.042 and 0 (2×) and 3.991 and 1.153 and 0.6262 and 11.8493 and 3.81 and 4.532 and 0.05376.
